Reference: US20050043315A1, “Aminopyrimidine compounds, processes for their preparation and pharmaceutical compositions containing them” (priority 2002, published 2005)

SMILES | melting point [°C]
Nc1ncc(-c2ccc(=O)[nH]n2)c(-c2ccc(Cl)c(Cl)c2)n1 [Example 38, 6-[2-Amino-4-(3,4-dichlorophenyl)-5-pyrimidinyl]-3(2H)-pyridazinone] | 300
Cc1ccccc1-c1nc(N)ncc1-c1ccc(=O)[nH]n1 [Example 39, 6-[2-Amino-4-(2-methylphenyl)-5-pyrimidinyl]-3(2H)-pyridazinone] | 313
COc1ccccc1-c1nc(N)ncc1-c1ccc(=O)[nH]n1 [Example 40, 6-[2-Amino-4-(2-methoxyphenyl)-5-pyrimidinyl]-3(2H)-pyridazinone] | 273
Nc1ncc(-c2ccc(=O)[nH]n2)c(-c2cccs2)n1 [Example 41, 6-[2-Amino-4-(2-thienyl)-5-pyrimidinyl]-3(2H)-pyridazinone] | 265
Cc1cccc(-c2nc(N)ncc2-c2ccc(=O)[nH]n2)c1 [Example 42, 6-[2-Amino-4-(3-methylphenyl)-5-pyrimidinyl]-3(2H)-pyridazinone] | 216
COc1cccc(-c2nc(N)ncc2-c2ccc(=O)[nH]n2)c1 [Example 43, 6-[2-Amino-4-(3-methoxyphenyl)-5-pyrimidinyl)-3(2H)-pyridazinone] | 134
COc1ccc(-c2nc(N)ncc2-c2ccc(=O)n(C(C)C)n2)cc1 [Example 44, 6-[2-amino-4-(4-methoxyphenyl)-5-pyrimidinyl]-2-isopropyl-3(2H)-pyridazinone] | 216.5
CC(C)n1nc(-c2cnc(N)nc2-c2ccc(Cl)cc2)ccc1=O [Example 45, 6-[2-Amino-4-(4-chlorophenyl)-5-pyrimidinyl]-2-isopropyl-3(2H)-pyridazinone] | 195
COc1ccc(-c2nc(N)ncc2-c2ccc(=O)n(C(C)C)n2)cc1F [Example 46, 6-[2-Amino-4-(3-fluoro-4-methoxyphenyl)-5-pyrimidinyl]-2-isopropyl-3(2H)-pyridazinone] | 174
Cc1ccc(-c2nc(N)ncc2-c2ccc(=O)n(C(C)C)n2)cc1 [Example 48, 6-[2-Amino-4-(4-methylphenyl)-5-pyrimidinyl]-2-isopropyl-3(2H)-pyridazinone] | 224
CC(C)n1nc(-c2cnc(N)nc2-c2ccc(F)c(F)c2)ccc1=O [Example 49, 6-[2-Amino-4-(3,4-difluorophenyl)-5-pyrimidinyl]-2-isopropyl-3(2H)-pyridazinone] | 208
CC(C)n1nc(-c2cnc(N)nc2-c2ccc(Cl)c(Cl)c2)ccc1=O [Example 50, 6-[2-Amino-4-(3,4-dichlorophenyl)-5-pyrimidinyl]-2-isopropyl-3(2H)-pyridazinone] | 176
COc1ccc(-c2nc(N)ncc2-c2ccc(=O)n(C(C)C)n2)cc1OC [Example 51, 6-[2-Amino-4-(3,4-dimethoxyphenyl)-5-pyrimidinyl]-2-isopropyl-3(2H)-pyridazinone] | 167
CC(C)n1nc(-c2cnc(N)nc2-c2cccnc2)ccc1=O [Example 52, 6-[2-Amino-4-(3-pyridinyl)-5-pyrimidinyl]-2-isopropyl-3(2H)-pyridazinone] | 204
CC(C)n1nc(-c2cnc(N)nc2-c2ccncc2)ccc1=O [Example 53, 6-[2-Amino-4-(4-pyridinyl)-5-pyrimidinyl]-2-isopropyl-3(2H)-pyridazinone] | 219
CC(C)n1nc(-c2cnc(N)nc2-c2cccs2)ccc1=O [Example 55, 6-(2-Amino-4-(2-thienyl)-5-pyrimidinyl]-2-isopropyl-3(2H)-pyridazinone] | 213
Cc1ccccc1-c1nc(N)ncc1-c1ccc(=O)n(C(C)C)n1 [Example 56, 6-[2-Amino-4-(2-methylphenyl)-5-pyrimidinyl]-2-isopropyl-3(2H)-pyridazinone] | 203
Cc1cccc(-c2nc(N)ncc2-c2ccc(=O)n(C(C)C)n2)c1 [Example 57, 6-[2-Amino-4-(3-methylphenyl)-5-pyrimidinyl]-2-isopropyl-3(2H)-pyridazinone] | 198
COc1ccccc1-c1nc(N)ncc1-c1ccc(=O)n(C(C)C)n1 [Example 58, 6-[2-Amino-4-(2-methoxyphenyl)-5-pyrimidinyl]-2-isopropyl-3(2H)-pyridazinone] | 170
COc1cccc(-c2nc(N)ncc2-c2ccc(=O)n(C(C)C)n2)c1 [Example 59, 6-[2-Amino-4-(3-methoxyphenyl)-5-pyrimidinyl]-2-isopropyl-3(2H)-pyridazinone] | 211
COc1ccc(-c2nc(N)ncc2-c2ccc(=O)n(C)n2)cc1 [Example 60, 6-[2-Amino-4-(4-methoxyphenyl)-5-pyrimidinyl]-2-methyl-3(2H)-pyridazinone] | 259
Cn1nc(-c2cnc(N)nc2-c2ccc(Cl)cc2)ccc1=O [Example 61, 6-[2-Amino-4-(4-chlorophenyl)-5-pyrimidinyl]-2-methyl-3(2H)-pyridazinone] | 264
Cn1nc(-c2cnc(N)nc2-c2cccc(F)c2)ccc1=O [Example 62, 6-[2-Amino-4-(3-fluorophenyl)-5-pyrimidinyl]-2-methyl-3(2H)-pyridazinone] | 212.5
COc1ccc(-c2nc(N)ncc2-c2ccc(=O)n(C)n2)cc1F [Example 63, 6-(2-Amino-4-(3-fluoro-4-methoxyphenyl)-5-pyrimidinyl]-2-methyl-3(2H)-pyridazinone] | 245
Cn1nc(-c2cnc(N)nc2-c2ccco2)ccc1=O [Example 64, 6-[2-Amino-4-(2-furyl)-5-pyrimidinyl]-2-methyl-3(2H)-pyridazinone] | 234
Cc1ccc(-c2nc(N)ncc2-c2ccc(=O)n(C)n2)cc1 [Example 65, 6-[2-Amino-4-(4-methylphenyl)-5-pyrimidinyl]-2-methyl-3(2H)-pyridazinone] | 230
Cn1nc(-c2cnc(N)nc2-c2ccc(F)c(F)c2)ccc1=O [Example 66, 6-[2-Amino-4-(3,4-difluorophenyl)-5-pyrimidinyl]-2-methyl-3(2H)-pyridazinone] | 231
COc1ccc(-c2nc(N)ncc2-c2ccc(=O)n(C)n2)cc1OC [Example 67, 6-[2-Amino-4-(3,4-dimethoxyphenyl)-5-pyrimidinyl]-2-methyl-3(2H)-pyridazinone] | 232
Cn1nc(-c2cnc(N)nc2-c2ccc(Cl)c(Cl)c2)ccc1=O [Example 68, 6-[2-Amino-4-(3,4-dichlorophenyl)-5-pyrimidinyl]-2-methyl-3(2H)-pyridazinone] | 238

The remaining lines, values ahead:

melting point [°C] | SMILES
270 | Cn1nc(-c2cnc(N)nc2-c2cccs2)ccc1=O [Example 69, 6-[2-Amino-4-(2-thienyl)-5-pyrimidinyl]-2-methyl-3(2H)-pyridazinone]
229 | Cc1ccccc1-c1nc(N)ncc1-c1ccc(=O)n(C)n1 [Example 70, 6-[2-Amino-4-(2-methylphenyl)-5-pyrimidinyl]-2-methyl-3(2H)-pyridazinone]
214 | Cc1cccc(-c2nc(N)ncc2-c2ccc(=O)n(C)n2)c1 [Example 71, 6-[2-Amino-4-(3-methylphenyl)-5-pyrimidinyl]-2-methyl-3(2H)-pyridazinone]
225 | COc1ccccc1-c1nc(N)ncc1-c1ccc(=O)n(C)n1 [Example 72, 6-[2-Amino-4-(2-methoxyphenyl)-5-pyrimidinyl]-2-methyl-3(2H)-pyridazinone]
195 | COc1cccc(-c2nc(N)ncc2-c2ccc(=O)n(C)n2)c1 [Example 73, 6-[2-Amino-4-(3-methoxyphenyl)-5-pyrimidinyl]-2-methyl-3(2H)-pyridazinone]
> 250 | Cn1nc(-c2cnc(N)nc2-c2ccccc2Br)ccc1=O [Example 74, 6-[2-Amino-4-(2-bromophenyl)-5-pyrimidinyl]-2-methyl-3(2H)-pyridazinone]
221 to 222 | CSc1nc(N)nc(-c2ccccc2)c1-c1ccc(=O)n(C(C)C)n1 [Example 78, 6-[2-amino-4-(methylthio)-6-phenyl-5-pyrimidinyl]-2-isopropyl-3(2H)-pyridazinone]
225 to 227 | CC(C)n1nc(-c2c(-c3ccccc3)nc(N)nc2[S+](C)[O-])ccc1=O (centres unmarked) [Example 79, 6-[2-amino-4-(methylsulfinyl)-6-phenyl-5-pyrimidinyl]-2-isopropyl-3(2H)-pyridazinone]
210 to 211 | CC(C)n1nc(-c2c(-c3ccccc3)nc(N)nc2S(C)(=O)=O)ccc1=O [Example 79, 6-[2-amino-4-(methylsulfonyl)-6-phenyl-5-pyrimidinyl]-2-isopropyl-3(2H)-pyridazinone]
230 to 233 | COc1nc(N)nc(-c2ccccc2)c1-c1ccc(=O)n(C(C)C)n1 [Example 80, 6-(2-amino-4-methoxy-6-phenyl-5-pyrimidinyl)-2-isopropyl-3(2H)-pyridazinone]
187.5 to 188.5 | CCOc1nc(N)nc(-c2ccccc2)c1-c1ccc(=O)n(C(C)C)n1 [Example 81, 6-(2-amino-4-ethoxy-6-phenyl-5-pyrimidinyl)-2-isopropyl-3(2H)-pyridazinone]
176.5 to 177.5 | CC(C)Oc1nc(N)nc(-c2ccccc2)c1-c1ccc(=O)n(C(C)C)n1 [Example 82, 6-(2-Amino-4-isopropoxy-6-phenyl-5-pyrimidinyl)-2-isopropyl-3(2H)-pyridazinone]
161 to 162.5 | CC(C)n1nc(-c2c(OC3CCC3)nc(N)nc2-c2ccccc2)ccc1=O [Example 83, 6-[2-Amino-4-(cyclobutyloxy)-6-phenyl-5-pyrimidinyl]-2-isopropyl-3(2H)-pyridazinone]
130.5 to 132.5 | C=CCOc1nc(N)nc(-c2ccccc2)c1-c1ccc(=O)n(C(C)C)n1 [Example 84, 6-[4-(Allyloxy)-2-amino-6-phenyl-5-pyrimidinyl]-2-isopropyl-3(2H)-pyridazinone]
145 to 146.6 | C#CCOc1nc(N)nc(-c2ccccc2)c1-c1ccc(=O)n(C(C)C)n1 [Example 85, 6-[2-amino-4-phenyl-6-(2-propynyloxy)-5-pyrimidinyl]-2-isopropyl-3(2H)-pyridazinone]
